Laboratory results from patent publication US7777047B2, “Indole compound” (Takeda Pharmaceutical Company Limited, priority 2006, dated 2010).

Columns and labels:
[1] = target: T1, GST-hLGK1 (human liver GK) (Homo sapiens, UniProt P35557); test: Determination of GK activity value (GST-hLGK1, Mant-ATP, capillary electrophoresis); assay type: biochemical; conditions: glucokinase activation; GST-hLGK1, D-glucose, 37° C. for 60 min; concentration at midpoint between maximum activity value and control group activity value
T1 construct: made in house; host or cells: Escherichia coli BL21 (Stratagene), plasmid pGEX6P-2/hLGK1
T1 sequence (P35557 1-464 isoform P35557-3): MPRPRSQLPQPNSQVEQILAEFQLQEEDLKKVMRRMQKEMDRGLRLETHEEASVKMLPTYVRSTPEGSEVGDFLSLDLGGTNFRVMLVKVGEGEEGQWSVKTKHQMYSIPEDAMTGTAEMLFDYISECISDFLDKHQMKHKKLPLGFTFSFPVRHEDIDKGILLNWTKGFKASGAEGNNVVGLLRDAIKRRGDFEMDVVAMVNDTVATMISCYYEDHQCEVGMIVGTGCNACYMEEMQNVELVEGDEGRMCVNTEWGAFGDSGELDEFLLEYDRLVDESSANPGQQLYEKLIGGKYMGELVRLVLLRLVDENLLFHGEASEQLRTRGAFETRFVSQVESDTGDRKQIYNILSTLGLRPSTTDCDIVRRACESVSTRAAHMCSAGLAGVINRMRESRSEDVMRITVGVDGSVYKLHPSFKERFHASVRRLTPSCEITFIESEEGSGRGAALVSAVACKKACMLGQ
Description: Plasmid DNA to be used for the expression of a protein (GST-hLGK1) containing GST (Glutathione S-transferase) added to the amino terminal of human liver GK in Escherichia coli was prepared as follows.
BL21 strain (Stratagene) transformed with pGEX6P-2/hLGK1 obtained in Reference Example 1A was cultured with shaking at 37° C. for 14 hr in a 200 ml Erlenmeyer flask containing 50 ml of 100 μg/ml ampicillin-containing LB medium. The culture medium (25 ml) was diluted with 225 ml of 100 μg/ml ampicillin-containing LB medium, and further cultured with shaking at 37° C. for 1 hr in a 1 L Erlenmeyer flask. After culture, the Erlenmeyer flask was cooled on ice, 125 μL of 100 mM isopropyl-thio-β-D-galactopyranoside (IPTG) was added (final concentration 50 μM), and cultured at 17° C. for 20 hr. The culture medium was centrifuged, and the obtained fungus was disrupted by ultrasonication. The object protein (GST-hLGK1) was purified from the supernatant using Glutathione Sepharose 4B (Amersham Biosciences K.K.).
A solution (5 μL) of test compound in 50% dimethyl sulfoxide was added to each well of 384 well black plate (Nalge Nunc International K.K.). Then, a solution ([…]) obtained by diluting GST-hLGK1 obtained in Reference Example 2A with measurement buffer (containing 50 mM HEPES (pH 7.4), 200 mM KCl, 5 mM MgCl2, 2.5 mM DTT and 50 μM 2′-(or-3′)-O—(N-methylanthraniloyl)adenosine 5′-triphosphate (Mant-ATP) (Jena Bioscience GmbH)) to 6 μg/mL was added to each well.
Each well was stood at 37° C. for 10 min, and 25 mM D-glucose solution (10 μL) was added to start the reaction.
Each well after the reaction was stood at 37° C. for 60 min, and the reaction was quenched by adding 25 μL of a quenching solution (containing 200 mM HEPES (pH 7.4), 20 mM MgCl2, 200 mM EDTA, 0.03% Triton-X 100, 0.3% Coating 3 reagent (Caliper Life Sciences, Inc.)).
2′-(or-3′)-O—(N-methylanthraniloyl)adenosine 5′-triphosphate (Mant-ATP, substrate) and Mant-ADP (reaction resultant product) were separated from each well after the reaction by a microchip type capillary electrophoresis apparatus 250 HTS (Caliper Life Sciences, Inc.). The reaction rate [(reaction resultant product peak height)/(reaction resultant product peak height+substrate peak height)×100(%)] was calculated from the ratio of the substrate peak height and reaction resultant product peak height obtained by fluorescence detection (excitation wavelength 355 nm, measurement wavelength 460 nm) and used as the index of GK activity.
As a control group, the reaction rate was calculated in the same manner as above except that “solution in 50% dimethyl sulfoxide (without test compound)” was used instead of “solution of test compound in 50% dimethyl sulfoxide”.
A concentration dependency curve of the test compound was drawn with the percentage obtained by dividing the reaction rate of the well added with the test compound (test compound addition group) by the reaction rate of the control group was taken as the GK activity value of the test compound, and the concentration of the test compound at the midpoint between the maximum activity value of the test compound addition group and the control group activity value is shown as EC50 value.

Row | Compound | EC50 [1] | melting point
1 | CN(C)C(=O)CN1CCN(Cc2cnc(-c3cc4cccc(N(C)S(=O)(=O)c5cccs5)c4[nH]3)s2)CC1 [Example 10, N,N-dimethyl-2-{4-[(2-{7-[methyl(2-thienylsulfonyl)amino]-1H-indol-2-yl}-1,3-thiazol-5-yl)methyl]piperazin-1-yl}acetamide ditrifluoroacetate] | 210 nM | 
2 | CN(c1cccc2cc(C3=NCC(CC(N)=O)S3)[nH]c12)S(=O)(=O)c1ccccn1 (single isomer, unassigned) [Example 337, 2-(2-{7-[methyl(pyridin-2-ylsulfonyl)amino]-1H-indol-2-yl}-4,5-dihydro-1,3-thiazol-5-yl)acetamide] | 82 nM | 149 to 150 °C
3 | CC(=O)N1CCN(Cc2nnc(-c3cc4cccc(N(C)S(=O)(=O)c5cccs5)c4[nH]3)s2)CC1 [Example 198, N-(2-{5-[(4-acetylpiperazin-1-yl)methyl]-1,3,4-thiadiazol-2-yl}-1H-indol-7-yl)-N-methylthiophene-2-sulfonamide] | 530 nM | 
4 | COCCOc1cc(N(C)S(=O)(=O)c2ccccn2)c2[nH]c(C3=NCC(CN4CC[S+]([O-])CC4)S3)cc2c1 (single isomer, unassigned) [Example 398, N-(5-(2-methoxyethoxy)-2-{5-[(1-oxidothiomorpholino)methyl]-4,5-dihydro-1,3-thiazol-2-yl}-1H-indol-7-yl)-N-methylpyridine-2-sulfonamide] | 210 nM | 
5 | CN(c1cccc2cc(C3=NCC(CN4CCOCC4)S3)[nH]c12)S(=O)(=O)c1cccs1 (single isomer, unassigned) [Example 274, N-methyl-N-{2-[5-(morpholinomethyl)-4,5-dihydro-1,3-thiazol-2-yl]-1H-indol-7-yl}thiophene-2-sulfonamide] | 81 nM | 
6 | CN(c1cccc2cc(-c3ncc(CN4CCN5C(=O)OCC5C4)s3)[nH]c12)S(=O)(=O)c1cccs1 (stereo not shown) [Example 229, N-methyl-N-(2-{5-[(3-oxotetrahydro[1,3]oxazolo[3,4-a]pyrazin-7(1H)-yl)methyl]-1,3-thiazol-2-yl}-1H-indol-7-yl)thiophene-2-sulfonamide] | 120 nM | 
7 | CC(=O)N1CCN(CC2CN=C(c3cc4cccc(N(C)S(=O)(=O)c5cccs5)c4[nH]3)S2)CC1 (stereo not shown) [Example 218, N-(2-{5-[(4-acetylpiperazin-1-yl)methyl]-4,5-dihydro-1,3-thiazol-2-yl}-1H-indol-7-yl)-N-methylthiophene-2-sulfonamide] | 180 nM | 
8 | COCCOc1cc(N(C)S(=O)(=O)c2ccccn2)c2[nH]c(C3=N[C@H](CO)CS3)cc2c1 [Example 253, N-[2-[(4R)-4-(hydroxymethyl)-4,5-dihydro-1,3-thiazol-2-yl]-5-(2-methoxyethoxy)-1H-indol-7-yl]-N-methylpyridine-2-sulfonamide] | 210 nM | 
9 | CCN(c1cccc2cc(-c3ncc(CN4CCn5cnnc5C4)s3)[nH]c12)S(=O)(=O)c1cccs1 [Example 236, N-{2-[5-(5,6-dihydro[1,2,4]triazolo[4,3-a]pyrazin-7(8H)-ylmethyl)-1,3-thiazol-2-yl]-1H-indol-7-yl}-N-ethylthiophene-2-sulfonamide] | 250 nM | 

These reach a lower EC50 [1]. Values come first.

Row | EC50 [1] | melting point | Compound
10 | 24 nM |  | CN(c1cccc2cc(C3=NCC4(CCOCC4)S3)[nH]c12)S(=O)(=O)c1cccs1 [Example 243, N-methyl-N-[2-(8-oxa-1-thia-3-azaspiro[4.5]dec-2-en-2-yl)-1H-indol-7-yl]thiophene-2-sulfonamide]
11 | 37 nM | 226 °C | CN(c1cccc2cc(C3=NCC4(CCN(CC(N)=O)CC4)S3)[nH]c12)S(=O)(=O)c1cccs1 [Example 414, 2-(2-{7-[methyl(2-thienylsulfonyl)amino]-1H-indol-2-yl}-1-thia-3,8-diazaspiro[4.5]dec-2-en-8-yl)acetamide]
12 | 61 nM |  | CN(c1cccc2cc(C3=NCC(C)(CCN4CCOCC4)S3)[nH]c12)S(=O)(=O)c1cccs1 (stereo not shown) [Example 200, N-methyl-N-{2-[5-methyl-5-(2-(morpholino)ethyl)-4,5-dihydro-1,3-thiazol-2-yl]-1H-indol-7-yl}thiophene-2-sulfonamide]
13 | 44 nM |  | O=S(=O)(c1cccs1)N(c1cccc2cc(C3=NCC(CN4CCOCC4)S3)[nH]c12)C(F)F (single isomer, unassigned) [Example 348, N-(difluoromethyl)-N-{2-[5-(morpholinomethyl)-4,5-dihydro-1,3-thiazol-2-yl]-1H-indol-7-yl}thiophene-2-sulfonamide]
14 | 53 nM |  | CN(c1cccc2cc(C3=NCC(C(C)(C)O)S3)[nH]c12)S(=O)(=O)c1cccs1 (stereo not shown) [Example 226, N-{2-[5-(1-hydroxy-1-methylethyl)-4,5-dihydro-1,3-thiazol-2-yl]-1H-indol-7-yl}-N-methylthiophene-2-sulfonamide]
